# From PubChem BioAssay AID1645864 (Buhrlage Lab, Dana-Farber Cancer Institute and Novartis …, 2021)
# Activity calls are given as the source filed them.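 The calls were made as follows: active = maximal inhibition of USP17 at or above 30% in the confirmation dose-response, a value not among the printed readouts; inactive = the rest.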
# Target: Ubiquitin carboxyl-terminal hydrolase 17-like protein 5 (Homo sapiens) (UniProt A8MUK1)
# Assay: ubiquitin-specific protease 17 DUB inhibitors, concentration-effect assay, cell-free, verification of initial screening actives (AID 1645864)
# Details: purified USP17, ubiquitin-rhodamine cleavage fluorescence, 3 h
# Sequence of Ubiquitin carboxyl-terminal hydrolase 17-like protein 5 (Homo sapiens) (A8MUK1 whole entry, looked up): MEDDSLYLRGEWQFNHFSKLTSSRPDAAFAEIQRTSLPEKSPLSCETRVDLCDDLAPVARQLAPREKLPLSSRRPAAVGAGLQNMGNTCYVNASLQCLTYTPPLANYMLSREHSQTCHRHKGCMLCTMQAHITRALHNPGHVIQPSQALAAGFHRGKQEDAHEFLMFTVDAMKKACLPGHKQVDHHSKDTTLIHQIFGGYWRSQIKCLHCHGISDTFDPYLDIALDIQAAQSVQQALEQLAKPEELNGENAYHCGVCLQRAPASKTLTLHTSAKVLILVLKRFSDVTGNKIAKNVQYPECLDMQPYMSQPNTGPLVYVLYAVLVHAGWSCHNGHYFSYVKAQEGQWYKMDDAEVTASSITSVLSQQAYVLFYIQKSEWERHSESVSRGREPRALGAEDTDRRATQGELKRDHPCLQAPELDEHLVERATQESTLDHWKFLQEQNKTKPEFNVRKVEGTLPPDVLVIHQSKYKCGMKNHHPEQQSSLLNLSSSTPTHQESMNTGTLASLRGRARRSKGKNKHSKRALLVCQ
row,Structure (SMILES),IC50
1,O=C(NCc1ccc(F)cc1)C1CCCN(c2cnc3nccnc3c2)C1 (centres undefined),> 50 µM (inactive)
2,COc1cccc2c1OCC(NS(=O)(=O)c1cc(C)ccc1C)C2 (centres undefined),> 50 µM (inactive)
3,O=C(c1ccco1)N1CCN=C1SCc1ccccc1F,> 50 µM (inactive)
4,O=C1C=CC(O)C2C1CC13SSC4(CC5C(=O)C=CC(O)C5N4C1=O)C(=O)N23 (centres undefined),> 50 µM (inactive)
5,O=C(Nc1ccc2c(c1)OCCO2)c1cc(CN2CCOCC2)on1,> 50 µM (inactive)
6,NC(=O)c1ccc(NC(=O)Cc2cc(-c3ccc(Cl)cc3)on2)cc1,> 50 µM (inactive)
7,COc1cnc(-c2ccccn2)nc1Sc1ccccc1Cl,16.2 µM
8,COc1cc(-c2cc(C(=O)Nc3cc(C)[nH]n3)c3ccccc3n2)cc(OC)c1OC,42.9 µM
9,CC(C)(C)C(=O)Nc1ccc(SCc2nnc(-c3ccccc3)o2)cc1,> 50 µM (inactive)
10,O=C(Nc1ccccc1Sc1ncc(-c2ccc(Cl)cc2)cn1)c1ccco1,5.78 µM
11,COc1ccc(-c2cc(C(C)=O)c(C)n2CCC(=O)Nc2ccc(OC)cc2OC)cc1,40.7 µM
12,Cn1ncc2c(=O)n(Cc3cccc(Cl)c3)cnc21,> 50 µM (inactive)
13,Cc1nn(-c2ccccc2)c(C)c1C(=O)OCC(=O)Nc1cccc(Br)c1,40.6 µM
14,CCC1=C(c2ccc(C)cc2)S(=O)(=O)NC1=NCC(=O)NC(C)c1ccccc1 (centres undefined),25.2 µM
15,CC(=O)c1sc(NC(=O)c2ccccc2-c2ccc(C(F)(F)F)cc2)nc1C,17 µM
16,CC(=O)c1sc(NC(=O)/C=C/c2ccccc2)nc1-c1ccccc1,13.7 µM
17,O=C(NCCCN1CCc2ccccc2C1)c1cc2c(s1)CS(=O)(=O)C2,> 5 µM (inactive)
18,COc1cccc(C(=O)NCC(=O)Nc2nc3ccccc3[nH]2)c1,38.6 µM
19,O=C(OC1CSc2nc3ccccc3n2C1)c1ccc([N+](=O)[O-])o1 (centres undefined),30.5 µM
20,CC(=O)Nc1cc(-c2cccc(O)c2)cn2c(-c3cnn(C)c3)cnc12,3.57 µM
21,O=C(Nc1ccncc1)c1ncoc1-c1cccc(Cl)c1,> 50 µM (inactive)
22,CCOc1ccc(NC(=O)c2cc(-c3ccccc3)c(N3CCOCC3)s2)cc1,19.9 µM
23,COc1ccc(NC(=O)CNC(=O)c2ccc3nc(-n4cccc4)sc3c2)cc1,3.15 µM
24,COC(=O)c1ccc(C(=O)Nc2cc3ccccc3cc2NC(=O)c2ccc(C(=O)OC)cc2)cc1,0.68 µM
25,Cc1sc(-c2cccnc2)nc1OC(=O)c1ccc(Cl)c(Cl)c1,> 50 µM (inactive)

row,Structure (SMILES),IC50
1,O=C(c1ccco1)N1CCC2(CC1)CC1(CO2)Nc2ccccc2-n2cccc21 (centres undefined),20.6 µM
2,COc1ccc(-n2c(SCC(=O)c3ccc(F)cc3)nnc2-c2cccnc2)cc1,23.8 µM
3,O=C(Nc1ccc(-c2cn3ccsc3n2)cc1)c1ccc(Cl)c([N+](=O)[O-])c1,1.17 µM
4,O=C1COc2ccccc2N1Cc1noc(-c2ccccc2)n1,> 50 µM (inactive)
5,Cc1ccc(OC(=O)c2cn(-c3ccccc3)nc2-c2cccnc2)cc1,> 50 µM (inactive)
6,O=C(Nc1cc(-c2cccnc2)no1)c1ccc(F)c(F)c1,19.3 µM
7,COc1ccc(Cn2c(SCc3ccc(C(=O)NCCc4ccccc4)cc3)nc3ccncc32)cc1,> 50 µM (inactive)
8,O=C(COC(=O)c1cc(Cl)ccc1O)Nc1ccc2c(c1)OCCO2,29.2 µM
9,CCCc1nc2sc3c(NC4CCCCC4)ncnc3c2c2c1CCC2,> 50 µM (inactive)
10,COc1cccc(CCNC(=O)CCn2c(=O)c(C)nc3cc(C)c(C)cc32)c1,> 50 µM (inactive)
11,COc1ccccc1NC(=O)CSC1=NC2(CCCCC2)Nc2ccccc21,> 50 µM (inactive)
12,O=C(CCc1nnc2n(Cc3ccc(F)cc3)c(=O)c3ccccc3n12)N1CCN(c2ccccn2)CC1,> 50 µM (inactive)
13,COc1ccc(-c2cnnn2-c2ccc(NC(=O)c3c(F)cccc3F)cc2)cc1OC,> 50 µM (inactive)
14,COc1cccc(Cn2nc3n(CC(C)C)c(=O)c4ccc(C(=O)NCC(C)C)cc4n3c2=O)c1,6.84 µM
15,COC1C(O)=C2C(=O)O/C(C)=C/C=C/C=C/C=C/CC(c3ccccc3)NC(=O)/C=C/C=C/C=C\C=C\C2(C)C1O (centres undefined),> 50 µM (inactive)
16,N#Cc1ccccc1Cn1c(=O)n(Cc2ccco2)c(=O)c2ccccc21,36.6 µM
17,COc1ccc(OC)c(CCNC(=O)CCC2=NS(=O)(=O)c3ccc(C(F)(F)F)cc3N2)c1,26.9 µM
18,Cn1ccnc1CN1C[C@H]2CCN(c3ncccn3)C[C@H]2C1,> 50 µM (inactive)
19,O=C(COc1cc([N+](=O)[O-])cc2cccnc12)NCCC1=CCCCC1,23.5 µM
20,O=C(COC(=O)Cn1cnc2ccccc21)Nc1ccc2c(c1)OCCO2,> 50 µM (inactive)
21,CN[C@H]1CC2(CCN(C(=O)CCCn3cccn3)CC2)OC[C@]1(C)O,> 50 µM (inactive)
22,Cc1nn(CC(=O)Nc2ccc(Br)c3cccnc23)c(=O)c2ccccc12,12.7 µM
23,COc1ccc(C(=O)Nc2cc3c4c(c2)C(C)C(=O)N4CCC3)cc1 (centres undefined),> 50 µM (inactive)
24,CCc1ccc(-n2nc(C)c3c2NC(=O)CC3C(=O)c2ccc3c(c2)OCCO3)cc1 (centres undefined),27.5 µM
25,COc1cccc(NC(=O)Cn2c(COc3ccccc3)nc3ccccc32)c1,4.83 µM

row,Structure (SMILES),IC50
1,CCCc1nc2sc3c(NCc4ccco4)ncnc3c2c2c1CCC2,> 50 µM (inactive)
2,CCC1OC(O)(C(C)C(O)C(C)C2OC(=O)/C(C)=C/C(C)=CC(C)C(O)C(C)C/C(C)=C/C=C/C2OC)CC(OC(=O)/C=C/C(=O)NC2=C(O)CCC2=O)C1C (centres undefined),> 50 µM (inactive)
3,CC(=O)Nc1ccc(-n2cnc(C(=O)NCc3ccc(C)cc3)c2)nc1,27.1 µM
4,Cc1cccc(C(=O)N2CCc3cc(-c4nc(NC(=O)CN5CCc6ccccc6C5)sc4C)ccc32)c1,> 50 µM (inactive)
5,CC(C(=O)NCc1ccc(F)cc1)n1cccc1C(=O)c1ccccc1 (centres undefined),> 50 µM (inactive)
6,COc1cccc(NC(=O)c2ccc3noc(-c4ccc(Cl)cc4)c3c2)c1,37.4 µM
7,COc1ccc(C)cc1NC(=O)CSc1nc(C)nc2c1oc1ccccc12,22.3 µM
8,CN1CCN(C(=O)c2cc(-c3ccn(-c4ccccc4)n3)n3ccccc23)CC1,> 50 µM (inactive)
9,O=C(Nc1oc2ccccc2c(=O)c1-c1ccc2c(c1)OCO2)C1CCCCC1,30.1 µM
10,CCOC(=O)Nc1ccc(N2CCn3c(nc4ccccc43)C2)cc1OC,> 50 µM (inactive)
11,Cc1ccc(Cl)c(-n2nnc(C(=O)Nc3ccccc3C#N)c2C)c1,4.85 µM
12,CCC(CC)n1[nH]c(=O)c2c1NC(=O)CSC2c1ccc2c(c1)OCO2 (centres undefined),18.5 µM
13,Cc1ccc2c(c1)N(Cc1nc(-c3ccc(F)cc3)no1)C(=O)CO2,> 50 µM (inactive)
14,O=C(COc1ccc2oc3c(c2c1)CCCC3)Nc1ccccn1,25.4 µM
15,COc1ccc2cc1Oc1cc(ccc1OC)C(O)C13SSC4(C(=O)N1C)C(O)C1=COC=CC(OC2=O)C1N4C3=O (centres undefined),> 50 µM (inactive)
16,Cc1ccc(NC(=O)c2sc3ncn(CC(=O)N4CCN(c5ccccn5)CC4)c(=O)c3c2C)c(Br)c1,35.1 µM
17,NC(=O)c1nc(-c2cccnc2)nc2c1[nH]c(=O)n2-c1ccc2c(c1)OCO2,4.01 µM
18,CNC(=O)c1cc2nc(N(C)C)n(-c3ccc(F)cc3)c2s1,> 50 µM (inactive)
19,CC1CS(=O)(=O)N(c2ccc(C(=O)Nc3ccc4c(c3)OCCO4)cc2)C1=O (centres undefined),35.6 µM
20,O=C(Nc1ccc(F)cc1F)NC1Cc2ccccc2C1,28.2 µM
21,c1ccc2c(-c3nc(C4CC4)no3)nnc(NCc3ccncc3)c2c1,38.7 µM
22,O=C(CN1C(=O)c2ccccc2Sc2ccc(C(=O)N3CCCC3)cc21)Nc1ccccc1Cl,34.1 µM
23,CCCC(=O)Nc1ccc(SCc2nnc(-c3ccccc3)o2)cc1,> 50 µM (inactive)
24,Cc1cccc(Cl)c1NC(=O)Nc1ccc(NC(=O)c2ccccc2O)cc1,35.4 µM
25,COc1ccc(CNc2nn3c(-c4cncc(OC)c4)cnc3s2)cc1,4.02 µM

row,Structure (SMILES),IC50
1,Cc1c(Cl)cccc1NC(=O)Cn1ccc2ccccc2c1=O,2.23 µM
2,CCn1cc(-c2nc(-c3ccccc3)no2)c(=O)c2cc(F)ccc21,2.34 µM
3,O=c1ccc(-c2noc(Cc3cccc(Cl)c3)n2)c[nH]1,> 50 µM (inactive)
4,Cc1nn(-c2cccc(F)c2)c2c1C(C(=O)c1ccc(Cl)s1)CC(=O)N2 (centres undefined),39.8 µM
5,COc1cnc(CSc2ncccn2)cc1OCC(=O)Nc1cc(C)ccc1C,> 50 µM (inactive)
6,CC(=O)c1cccc(NC(=O)c2ccc(CN(c3ccc(C)c(C)c3)S(C)(=O)=O)cc2)c1,> 50 µM (inactive)
7,O=C(Cc1cc(-c2ccccc2)on1)NCc1c(F)cccc1F,28.1 µM
8,CCCc1nc2sc3c(NCCN4CCOCC4)ncnc3c2c2c1CCC2,> 50 µM (inactive)
9,c1ccc(Cc2nn3c(-c4cccnc4)nnc3c3ccccc23)cc1,0.42 µM
10,COc1ccccc1OCCNC(=O)c1cc(C2CC2)nc2c1cnn2C(C)C,> 50 µM (inactive)
11,CCc1nc(-c2cc(C(=O)N3CCOCC3)c3ccccn23)cs1,> 50 µM (inactive)
12,CSc1ncc(C(=O)NC(C)c2ccccc2)c(-c2ccccc2)n1 (centres undefined),20.5 µM
13,O=C1CC(C(=O)Nc2ccccc2Cl)n2nc(-c3ccccc3)cc2N1 (centres undefined),28.7 µM
14,COc1c(Cl)ccc2c(=O)c3c(O)c4c5c(c3oc12)OCO[C@H]5[C@@H](OC)c1cc2c(c(O)c1-4)C(=O)N(C)[C@H](OC)[C@@H]2O,> 50 µM (inactive)
15,O=C(Cn1ncc2c(N3CCCCCC3)ncnc21)NCc1ccccc1,> 50 µM (inactive)
16,FC(F)(F)c1ccccc1CCN1CCc2nc3ncc(Cl)cc3cc2C1,> 50 µM (inactive)
17,COc1ccc(NC(=O)C2CCN(c3cncnc3N(C)C)CC2)cc1OC,> 50 µM (inactive)
18,O=C(Nc1ccccc1)c1nc2c(s1)CCN(C(=O)c1ccccc1)CC2,> 50 µM (inactive)
19,COc1cc(Cl)c(C)cc1NC(=O)Cn1c(=O)n(CC(=O)NCc2ccco2)c(=O)c2ccccc21,2.37 µM
20,Cc1cc(C)c2cc(C(=O)NC3CCN(Cc4ccccc4)CC3)[nH]c2c1,14.7 µM
21,Cc1ncncc1C(=O)N1CCCC(C)(c2ncc(Cc3cccc(F)c3)o2)C1 (centres undefined),> 50 µM (inactive)
22,CC1=C(c2ccc(Cl)cc2)S(=O)(=O)NC1=NCC(=O)Nc1ccc(F)cc1,20.3 µM
23,Cc1nn(Cc2ccccc2)c(C)c1C(=O)NC1CCCc2ccccc21 (centres undefined),> 50 µM (inactive)
24,c1csc(CCN2CCc3nc4cccnc4cc3C2)c1,> 50 µM (inactive)
